Like-named read-outs stand apart in the source and are kept apart here.
Columns and labels:
[1] = test system: Key Grass and Sedge Weeds as well as Grass Crops; test: Post-emergent Test II herbicidal activity (Table 16); type: in vivo; conditions: post-emergence, 336 h, 14 d; for pest or weed control at 35 g/ha: 35 g ai/ha; for pest or weed control at 70 g/ha: 70 g ai/ha; for pest or weed control at 140 g/ha: 140 g ai/ha
How it was run: (§1)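 Herbicidal effect scored as percent visual injury, 14 d after post-emergent application. Spray solutions contained acetone, DMSO, isopropyl alcohol, crop oil concentrate and surfactant, applied at 187 L/ha to young plants (1-2 true leaves).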

[2] = test system: Key Broadleaf Weed and Crop Species; test: Post-emergent Test II herbicidal activity (Table 15); type: in vivo; conditions: post-emergence, 336 h, 14 d; for pest or weed control at 35 g/ha: 35 g ai/ha; for pest or weed control at 70 g/ha: 70 g ai/ha; for pest or weed control at 140 g/ha: 140 g ai/ha
How it was run: as §1

[3] = Cyperus esculentus, yellow nutsedge (Cyperus esculentus), read-out: Visual Growth Reduction (%) 14 Days After Application, CYPES
[4] = Echinochloa crus-galli, barnyardgrass (Echinochloa crus-galli), read-out: Visual Growth Reduction (%) 14 Days After Application, ECHCG
[5] = Oryza sativa, rice (Oryza sativa), read-out: Visual Growth Reduction (%) 14 Days After Application, ORYSA
[6] = Setaria faberi, giant foxtail (Setaria faberi), read-out: Visual Growth Reduction (%) 14 Days After Application, SETFA
[7] = Triticum aestivum, wheat, spring (Triticum aestivum), read-out: Visual Growth Reduction (%) 14 Days After Application, TRZAS
[8] = Zea mays, maize, corn (Zea mays), read-out: Visual Growth Reduction (%) 14 Days After Application, ZEAMX
[9] = Abutilon theophrasti, velvetleaf (Abutilon theophrasti), read-out: Visual Growth Reduction (%) 14 Days After Application, ABUTH
[10] = Amaranthus retroflexus, redroot pigweed (Amaranthus retroflexus), read-out: Visual Growth Reduction (%) 14 Days After Application, AMARE
[11] = Brassica napus, oilseed rape, canola (Brassica napus), read-out: Visual Growth Reduction (%) 14 Days After Application, BRSNN
[12] = Chenopodium album, lambsquarters (Chenopodium album), read-out: Visual Growth Reduction (%) 14 Days After Application, CHEAL
[13] = Euphorbia heterophylla, wild poinsettia (Euphorbia heterophylla), read-out: Visual Growth Reduction (%) 14 Days After Application, EPHHL
[14] = Helianthus annuus, sunflower (Helianthus annuus), read-out: Visual Growth Reduction (%) 14 Days After Application, HELAN

Row | Structure (SMILES) | pest or weed control at 35 g/ha [1, 3] | pest or weed control at 70 g/ha [1, 3] | pest or weed control at 140 g/ha [1, 3] | pest or weed control at 35 g/ha [1, 4] | pest or weed control at 70 g/ha [1, 4] | pest or weed control at 140 g/ha [1, 4] | pest or weed control at 35 g/ha [1, 5] | pest or weed control at 70 g/ha [1, 5] | pest or weed control at 140 g/ha [1, 5] | pest or weed control at 35 g/ha [1, 6] | pest or weed control at 70 g/ha [1, 6] | pest or weed control at 140 g/ha [1, 6] | pest or weed control at 35 g/ha [1, 7] | pest or weed control at 70 g/ha [1, 7] | pest or weed control at 140 g/ha [1, 7] | pest or weed control at 35 g/ha [1, 8] | pest or weed control at 70 g/ha [1, 8] | pest or weed control at 140 g/ha [1, 8] | pest or weed control at 35 g/ha [2, 9] | pest or weed control at 70 g/ha [2, 9] | further results
1 | Nc1cc(-c2cc3[nH]ccc3cc2F)nc(C(=O)O)c1Cl [Compound 1.26] | 0 to 29% | 0 to 29% | 0 to 29% | 0 to 29% | 0 to 29% | 0 to 29% | 0 to 29% | 0 to 29% | 0 to 29% | 0 to 29% | 0 to 29% | 0 to 29% | 0 to 29% | 0 to 29% | 0 to 29% | 0 to 29% | 0 to 29% | 0 to 29% | 0 to 29% | 0 to 29% | pest or weed control at 140 g/ha [2, 9]: 0 to 29%; pest or weed control at 35 g/ha [2, 10]: 75 to 84%; pest or weed control at 70 g/ha [2, 10]: 85 to 94%; pest or weed control at 140 g/ha [2, 10]: 95 to 100%; pest or weed control at 35 g/ha [2, 11]: 85 to 94%; pest or weed control at 70 g/ha [2, 11]: 95 to 100%; pest or weed control at 140 g/ha [2, 11]: 95 to 100%; pest or weed control at 35 g/ha [2, 12]: 0 to 29%; pest or weed control at 70 g/ha [2, 12]: 30 to 44%; pest or weed control at 140 g/ha [2, 12]: 30 to 44%; pest or weed control at 35 g/ha [2, 13]: 0 to 29%; pest or weed control at 70 g/ha [2, 13]: 30 to 44%; pest or weed control at 140 g/ha [2, 13]: 45 to 59%; pest or weed control at 35 g/ha [2, 14]: 0 to 29%; pest or weed control at 70 g/ha [2, 14]: 0 to 29%; pest or weed control at 140 g/ha [2, 14]: 0 to 29%
2 | COC(=O)c1nc(-c2ccc3cc[nH]c3c2F)nc(N)c1OC [Compound 1.34] | 0 to 29% | 0 to 29% | 0 to 29% | 0 to 29% | 0 to 29% | 0 to 29% | 0 to 29% | 0 to 29% | 0 to 29% | 0 to 29% | 0 to 29% | 60 to 74% | 0 to 29% | 0 to 29% | 30 to 44% | 0 to 29% | 0 to 29% | 0 to 29% | 0 to 29% | 0 to 29% | pest or weed control at 140 g/ha [2, 9]: 0 to 29%; pest or weed control at 35 g/ha [2, 10]: 0 to 29%; pest or weed control at 70 g/ha [2, 10]: 0 to 29%; pest or weed control at 140 g/ha [2, 10]: 30 to 44%; pest or weed control at 35 g/ha [2, 11]: 75 to 84%; pest or weed control at 70 g/ha [2, 11]: 85 to 94%; pest or weed control at 140 g/ha [2, 11]: 95 to 100%; pest or weed control at 35 g/ha [2, 12]: 0 to 29%; pest or weed control at 70 g/ha [2, 12]: 45 to 59%; pest or weed control at 140 g/ha [2, 12]: 60 to 74%; pest or weed control at 35 g/ha [2, 13]: 0 to 29%; pest or weed control at 70 g/ha [2, 13]: 0 to 29%; pest or weed control at 140 g/ha [2, 13]: 60 to 74%; pest or weed control at 35 g/ha [2, 14]: 85 to 94%; pest or weed control at 70 g/ha [2, 14]: 95 to 100%; pest or weed control at 140 g/ha [2, 14]: 95 to 100%

Reference: patent US20170050957A1, “4-AMINO-6-(HETEROCYCLIC)PICOLINATES AND 6-AMINO-2-(HETEROCYCLIC)PYRIMIDINE-4-CARBOXYLATES AND THEIR USE AS HERBICIDES” (Dow AgroSciences LLC, priority 2013, published 2017)
